Experimental data taken from ChEMBL document CHEMBL3997804, “Evaluation of a series of 2-napthamide derivatives as inhibitors of the drug efflux pump AcrB for the reversal of antimicrobial resistance” (Bioorg Med Chem Lett, 2017).
The source made the active and inactive calls. No cut-off for these calls is given here.

Experiments:
[1] = system: Escherichia coli BW25113; test: Inhibition of […] in drug resistant Escherichia coli BW25113 assessed as increase in outer membrane permeability by measuring increase nitrocefin hydrolysis at 512 ug/ml measured over 30 mins in presence of CCCP by spectrophotometric method
[2] = system: Escherichia coli; test: Growth inhibition of wild-type drug-resistant Escherichia coli BW25113 after 18 hrs by resazurin dye based broth microdilution method
[3] = system: Escherichia coli; test: Growth inhibition of drug-sensitive AcrB-deficient Escherichia coli BW25113 at 1024 ug/ml after 18 hrs by resazurin dye based broth microdilution method
[4] = system: Escherichia coli BW25113; test: Inhibition of AcrB in wild-type drug resistant Escherichia coli BW25113 assessed as potentiation of erythromycin-induced antibacterial activity by measuring erythromycin MIC at 128 ug/ml after 18 hrs by checkerboard method (reference value: 128 ug/ml)
[5] = system: Escherichia coli BW25113; test: Inhibition of AcrB in wild-type drug resistant Escherichia coli BW25113 assessed as potentiation of chloramphenicol-induced antibacterial activity by measuring chloramphenicol MIC at 128 ug/ml after 18 hrs by checkerboard method (reference value: 8 ug/ml)
[6] = system: Escherichia coli BW25113; test: Inhibition of AcrB in wild-type drug resistant Escherichia coli BW25113 assessed as potentiation of tetraphenyl phosphonium chloride-induced antibacterial activity by measuring tetraphenyl phosphonium chloride MIC at 128 ug/ml after 18 hrs by checkerboard method (reference value: 1024 ug/ml)
[7] = system: Escherichia coli; test: Effect on rifampicin-induced antibacterial activity against wild-type drug resistant Escherichia coli BW25113 assessed as rifampicin MIC at 128 ug/ml after 18 hrs by checkerboard method (reference value: 16 ug/ml); format: functional; settings: BW25113, 18 h
[8] = system: Escherichia coli; test: Potentiation of erythromycin-induced antibacterial activity against AcrB-deficient Escherichia coli BW25113 assessed as erythromycin MIC at 128 ug/ml after 18 hrs by checkerboard method (reference value: 16 ug/ml); format: functional; settings: BW25113, 18 h
[9] = system: Escherichia coli; test: Potentiation of chloramphenicol-induced antibacterial activity against AcrB-deficient Escherichia coli BW25113 assessed as chloramphenicol MIC at 128 ug/ml after 18 hrs by checkerboard method (reference value: 2 ug/ml); format: functional; settings: BW25113, 18 h
[10] = system: Escherichia coli; test: Potentiation of tetraphenyl phosphonium chloride-induced antibacterial activity against AcrB-deficient Escherichia coli BW25113 assessed as tetraphenyl phosphonium chloride MIC at 128 ug/ml after 18 hrs by checkerboard method (reference value: 64 ug/ml); format: functional; settings: BW25113, 18 h
[11] = system: Escherichia coli; test: Effect on rifampicin-induced antibacterial activity against AcrB-deficient Escherichia coli BW25113 assessed as rifampicin MIC at 128 ug/ml after 18 hrs by checkerboard method (reference value: 16 ug/ml); format: functional; settings: BW25113, 18 h
[12] = system: Escherichia coli BW25113; test: Inhibition of AcrB in wild-type drug resistant Escherichia coli BW25113 assessed as potentiation of erythromycin-induced antibacterial activity by measuring erythromycin MIC at 256 ug/ml after 18 hrs by checkerboard method (reference value: 128 ug/ml)
[13] = system: Escherichia coli BW25113; test: Inhibition of AcrB in wild-type drug resistant Escherichia coli BW25113 assessed as potentiation of chloramphenicol-induced antibacterial activity by measuring chloramphenicol MIC at 256 ug/ml after 18 hrs by checkerboard method (reference value: 8 ug/ml)
[14] = system: Escherichia coli BW25113; test: Inhibition of AcrB in wild-type drug resistant Escherichia coli BW25113 assessed as potentiation of tetraphenyl phosphonium chloride-induced antibacterial activity by measuring tetraphenyl phosphonium chloride MIC at 256 ug/ml after 18 hrs by checkerboard method (reference value: 1024 ug/ml)
[15] = system: Escherichia coli; test: Effect on rifampicin-induced antibacterial activity against wild-type drug resistant Escherichia coli BW25113 assessed as rifampicin MIC at 256 ug/ml after 18 hrs by checkerboard method (reference value: 16 ug/ml); format: functional; settings: BW25113, 18 h
[16] = system: Escherichia coli; test: Potentiation of erythromycin-induced antibacterial activity against AcrB-deficient Escherichia coli BW25113 assessed as erythromycin MIC at 256 ug/ml after 18 hrs by checkerboard method (reference value: 16 ug/ml); format: functional; settings: BW25113, 18 h
[17] = system: Escherichia coli; test: Potentiation of chloramphenicol-induced antibacterial activity against AcrB-deficient Escherichia coli BW25113 assessed as chloramphenicol MIC at 256 ug/ml after 18 hrs by checkerboard method (reference value: 2 ug/ml); format: functional; settings: BW25113, 18 h
[18] = system: Escherichia coli; test: Potentiation of tetraphenyl phosphonium chloride-induced antibacterial activity against AcrB-deficient Escherichia coli BW25113 assessed as tetraphenyl phosphonium chloride MIC at 256 ug/ml after 18 hrs by checkerboard method (reference value: 64 ug/ml); format: functional; settings: BW25113, 18 h
[19] = system: Escherichia coli; test: Effect on rifampicin-induced antibacterial activity against AcrB-deficient Escherichia coli BW25113 assessed as rifampicin MIC at 256 ug/ml after 18 hrs by checkerboard method (reference value: 16 ug/ml); format: functional; settings: BW25113, 18 h
[20] = system: Escherichia coli BW25113; test: Inhibition of AcrB in wild-type drug resistant Escherichia coli BW25113 assessed as potentiation of erythromycin-induced antibacterial activity by measuring erythromycin MIC at 512 ug/ml after 18 hrs by checkerboard method (reference value: 128 ug/ml)
[21] = system: Escherichia coli BW25113; test: Inhibition of AcrB in wild-type drug resistant Escherichia coli BW25113 assessed as potentiation of chloramphenicol-induced antibacterial activity by measuring chloramphenicol MIC at 512 ug/ml after 18 hrs by checkerboard method (reference value: 8 ug/ml)
[22] = system: Escherichia coli BW25113; test: Inhibition of AcrB in wild-type drug resistant Escherichia coli BW25113 assessed as potentiation of tetraphenyl phosphonium chloride-induced antibacterial activity by measuring tetraphenyl phosphonium chloride MIC at 512 ug/ml after 18 hrs by checkerboard method (reference value: 1024 ug/ml)
[23] = system: Escherichia coli; test: Effect on rifampicin-induced antibacterial activity against wild-type drug resistant Escherichia coli BW25113 assessed as rifampicin MIC at 512 ug/ml after 18 hrs by checkerboard method (reference value: 16 ug/ml); format: functional; settings: BW25113, 18 h
[24] = system: Escherichia coli; test: Potentiation of erythromycin-induced antibacterial activity against AcrB-deficient Escherichia coli BW25113 assessed as erythromycin MIC at 512 ug/ml after 18 hrs by checkerboard method (reference value: 16 ug/ml); format: functional; settings: BW25113, 18 h
[25] = system: Escherichia coli; test: Potentiation of chloramphenicol-induced antibacterial activity against AcrB-deficient Escherichia coli BW25113 assessed as chloramphenicol MIC at 512 ug/ml after 18 hrs by checkerboard method (reference value: 2 ug/ml); format: functional; settings: BW25113, 18 h
[26] = system: Escherichia coli; test: Potentiation of tetraphenyl phosphonium chloride-induced antibacterial activity against AcrB-deficient Escherichia coli BW25113 assessed as tetraphenyl phosphonium chloride MIC at 512 ug/ml after 18 hrs by checkerboard method (reference value: 64 ug/ml); format: functional; settings: BW25113, 18 h
[27] = system: Escherichia coli; test: Effect on rifampicin-induced antibacterial activity against AcrB-deficient Escherichia coli BW25113 assessed as rifampicin MIC at 512 ug/ml after 18 hrs by checkerboard method (reference value: 16 ug/ml); format: functional; settings: BW25113, 18 h
[28] = system: Escherichia coli BW25113; test: Inhibition of AcrB in wild-type drug resistant Escherichia coli BW25113 assessed as potentiation of erythromycin-induced antibacterial activity by measuring FICI at 128 to 512 ug/ml after 18 hrs by checkerboard method
[29] = system: Escherichia coli BW25113; test: Inhibition of AcrB in wild-type drug resistant Escherichia coli BW25113 assessed as potentiation of chloramphenicol-induced antibacterial activity by measuring FICI at 128 to 512 ug/ml after 18 hrs by checkerboard method
[30] = system: Escherichia coli BW25113; test: Inhibition of AcrB in wild-type drug resistant Escherichia coli BW25113 assessed as potentiation of tetraphenyl phosphonium chloride-induced antibacterial activity by measuring FICI at 128 to 512 ug/ml after 18 hrs by checkerboard method
[31] = system: Escherichia coli BW25113; test: Inhibition of AcrB in wild-type drug resistant Escherichia coli BW25113 assessed as reduction in nile red efflux at 50 uM pretreated for 15 mins followed by nile red addition measured after 3 hrs for 200 secs in presence of glucose by fluorimetric method
[32] = system: Escherichia coli BW25113; test: Inhibition of AcrB in drug resistant Escherichia coli BW25113 assessed as reduction in nile red efflux at 100 uM pretreated for 15 mins followed by nile red addition measured after 3 hrs for 200 secs in presence of glucose by fluorimetric method
[33] = system: Escherichia coli; test: Disruption of inner membrane potential in drug resistant Escherichia coli BW25113 at 512 ug/ml incubated for 10 mins measured for 60 secs by DiOC2(3) dye based fluorimetric method; format: functional
[34] = system: HepG2; test: Cytotoxicity against human HepG2 cells at 512 to 1024 ug/ml measured every 60 mins for 20 hrs by RealTime-Glo MT cell viability assay; format: cell-based; settings: hepg2, 20 h
[35] = system: HEK293; test: Cytotoxicity against HEK293 cells at 512 to 1024 ug/ml measured every 60 mins for 20 hrs by RealTime-Glo MT cell viability assay; format: cell-based; settings: human, hek293, 20 h

CC(C)CCOc1cc(C(N)=O)cc2ccccc12
inhibition [1]: inactive | growth inhibition (GI) [2]: Non-Toxic | growth inhibition (GI) [3]: Toxic | MIC [4]: 128 mg/L | MIC [5]: 8 mg/L | MIC [6]: 1020 mg/L | MIC [7]: 16 mg/L | MIC [8]: 16 mg/L | MIC [9]: 2 mg/L | MIC [10]: 64 mg/L | MIC [11]: 16 mg/L | MIC [12]: 64 mg/L | MIC [13]: 4 mg/L | MIC [14]: 512 mg/L | MIC [15]: 16 mg/L | MIC [16]: 16 mg/L | MIC [17]: 2 mg/L | MIC [18]: 64 mg/L | MIC [19]: 16 mg/L | MIC [20]: 16 mg/L | MIC [21]: 2 mg/L | MIC [22]: 128 mg/L | MIC [23]: 16 mg/L | MIC [24]: 16 mg/L | MIC [25]: 2 mg/L | MIC [26]: 64 mg/L | MIC [27]: 16 mg/L | fractional inhibitory concentration index (FICI) [28]: 0.25 | fractional inhibitory concentration index (FICI) [29]: 0.25 | fractional inhibitory concentration index (FICI) [30]: 0.25 | inhibition [31]: Active | inhibition [32]: Active | Activity [33]: inactive | Activity [34]: Non-Toxic | Activity [35]: Non-Toxic
